Experimental data as given in ChEMBL document CHEMBL4673363, “Highly potent, broadly active antifungal agents for the treatment of invasive fungal infections” (Bioorg Med Chem Lett, 2021).
In brackets after ≈: the same amount, converted by molar mass.

Key:
[1] = Antifungal activity against Mucor ramosissimus ATCC 90286; type: functional
[2] = test system: Mucor circinelloides; assay: Antifungal activity against Mucor circinelloides ATCC 26579; type: functional
[3] = test system: Fusarium solani; assay: Antifungal activity against Fusarium solani ATCC 58877; type: functional
[4] = test system: Aspergillus fumigatus; assay: Antifungal activity against Aspergillus fumigatus ATCC 3626; type: functional
[5] = test system: Aspergillus flavus; assay: Antifungal activity against Aspergillus flavus ATCC 3631; type: functional
[6] = Antifungal activity against Fusarium falciforme ATCC 3636; type: functional
[7] = test system: Trichophyton; assay: Antifungal activity against Trichophyton after 48 hrs by CLSI-based broth microdilution method; type: functional
[8] = test system: Candida; assay: Antifungal activity against Candida after 48 hrs by CLSI-based broth microdilution method; type: functional
[9] = Aqueous solubility of compound at pH 7.4; type: physicochemical
[10] = Solubility in 10% 2-hydroxypropyl-B-cyclodextrin; type: physicochemical
[11] = biological target: hERG (KCNH2) (Homo sapiens, UniProt Q12809); assay: Inhibition of human ERG at 10 uM by Qpatch method relative to control
Sequence of hERG (KCNH2) (Q12809 whole entry): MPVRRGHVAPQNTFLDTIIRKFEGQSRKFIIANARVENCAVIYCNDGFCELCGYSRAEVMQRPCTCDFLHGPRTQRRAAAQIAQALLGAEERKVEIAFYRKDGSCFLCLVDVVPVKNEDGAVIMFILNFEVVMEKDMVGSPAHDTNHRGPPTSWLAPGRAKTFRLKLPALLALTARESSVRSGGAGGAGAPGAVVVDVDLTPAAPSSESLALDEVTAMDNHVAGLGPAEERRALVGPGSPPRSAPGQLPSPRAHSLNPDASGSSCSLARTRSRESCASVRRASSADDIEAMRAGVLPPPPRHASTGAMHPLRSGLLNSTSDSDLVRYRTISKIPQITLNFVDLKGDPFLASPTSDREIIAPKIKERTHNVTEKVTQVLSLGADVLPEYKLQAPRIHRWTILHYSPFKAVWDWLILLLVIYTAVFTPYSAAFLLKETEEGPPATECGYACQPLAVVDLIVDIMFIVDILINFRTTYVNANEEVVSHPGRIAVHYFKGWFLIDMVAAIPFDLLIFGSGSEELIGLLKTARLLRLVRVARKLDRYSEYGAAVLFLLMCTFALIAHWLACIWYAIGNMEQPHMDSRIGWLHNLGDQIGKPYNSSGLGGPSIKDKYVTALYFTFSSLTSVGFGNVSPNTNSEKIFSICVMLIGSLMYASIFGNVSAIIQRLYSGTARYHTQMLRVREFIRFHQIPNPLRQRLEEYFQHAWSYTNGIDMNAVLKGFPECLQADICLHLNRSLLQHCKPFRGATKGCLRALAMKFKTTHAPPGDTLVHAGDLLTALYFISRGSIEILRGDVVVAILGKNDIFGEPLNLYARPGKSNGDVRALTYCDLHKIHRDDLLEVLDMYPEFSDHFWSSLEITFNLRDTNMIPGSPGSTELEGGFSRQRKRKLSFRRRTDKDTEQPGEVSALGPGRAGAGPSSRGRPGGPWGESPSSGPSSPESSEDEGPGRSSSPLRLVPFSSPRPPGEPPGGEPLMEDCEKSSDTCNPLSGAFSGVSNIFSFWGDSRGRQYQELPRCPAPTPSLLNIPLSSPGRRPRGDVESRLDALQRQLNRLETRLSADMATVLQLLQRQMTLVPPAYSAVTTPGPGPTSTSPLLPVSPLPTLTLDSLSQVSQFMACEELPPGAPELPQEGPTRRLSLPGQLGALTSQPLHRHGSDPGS

[12] = test system: CYP3A; assay: Inhibition of CYP3A in human liver microsomes at 10 uM using testosterone as substrate measured for 10 to 30 mins in presence of NADPH by LC-MS/MS analysis relative to control; type: ADME; conditions: probe testosterone, time 10-30 min
[13] = biological target: CYP2C19 (Homo sapiens, UniProt P33261); assay: Inhibition of CYP2C19 in human liver microsomes at 10 uM using S-mephenytoin as substrate measured for 10 to 30 mins in presence of NADPH by LC-MS/MS analysis relative to control; type: ADME; conditions: probe S-mephenytoin, time 10-30 min
Sequence of CYP2C19 (P33261 whole entry): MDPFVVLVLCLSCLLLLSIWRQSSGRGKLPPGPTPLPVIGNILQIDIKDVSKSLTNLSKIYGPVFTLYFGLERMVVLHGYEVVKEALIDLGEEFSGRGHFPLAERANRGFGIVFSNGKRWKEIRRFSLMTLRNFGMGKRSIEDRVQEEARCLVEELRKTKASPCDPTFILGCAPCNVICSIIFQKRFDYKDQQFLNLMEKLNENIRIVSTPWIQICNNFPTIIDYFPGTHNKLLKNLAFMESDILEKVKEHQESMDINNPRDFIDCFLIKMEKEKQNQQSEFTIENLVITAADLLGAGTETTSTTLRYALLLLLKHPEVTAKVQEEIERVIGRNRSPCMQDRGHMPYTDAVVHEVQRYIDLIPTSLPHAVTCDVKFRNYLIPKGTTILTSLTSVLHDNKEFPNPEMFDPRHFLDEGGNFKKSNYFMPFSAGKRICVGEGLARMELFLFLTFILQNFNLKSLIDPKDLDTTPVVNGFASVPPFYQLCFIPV

[14] = Protein binding in mouse plasma at 1 uM measured after 4 hrs by LC-MS/MS based rapid equilibrium dialysis method; type: ADME, cell-free; conditions: read-out: PPB (converted)
[15] = biological target: T1, CYP1A2 (Homo sapiens, UniProt P05177); assay: Inhibition of CYP1A2 in human liver microsomes at 10 uM using phenacetin as substrate measured for 10 to 30 mins in presence of NADPH by LC-MS/MS analysis relative to control; type: ADME; conditions: probe phenacetin, time 10-30 min
T1 sequence (P05177 whole entry): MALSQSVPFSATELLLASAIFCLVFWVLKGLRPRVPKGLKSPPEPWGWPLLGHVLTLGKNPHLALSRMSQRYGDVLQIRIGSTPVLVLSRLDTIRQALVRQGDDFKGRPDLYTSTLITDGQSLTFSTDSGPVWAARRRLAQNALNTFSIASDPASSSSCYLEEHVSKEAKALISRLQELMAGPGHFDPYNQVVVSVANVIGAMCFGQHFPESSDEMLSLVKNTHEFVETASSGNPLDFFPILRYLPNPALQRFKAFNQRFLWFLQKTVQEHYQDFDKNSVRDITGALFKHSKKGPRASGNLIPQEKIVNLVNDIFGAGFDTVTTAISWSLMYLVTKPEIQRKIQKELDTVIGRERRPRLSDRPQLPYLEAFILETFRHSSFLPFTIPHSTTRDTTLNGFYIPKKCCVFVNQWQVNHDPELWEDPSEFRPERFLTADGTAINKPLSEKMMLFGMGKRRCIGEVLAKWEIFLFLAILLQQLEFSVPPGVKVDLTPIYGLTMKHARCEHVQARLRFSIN

[16] = Metabolic stability in mouse liver microsomes assessed as half life measured up to 60 mins in presence of NADPH by LC-MS/MS analysis; type: ADME, Microsome
[17] = Selectivity index, ratio of CC50 for human HepG2 cells to MIC for candida albicans; type: toxicity; conditions: read-out: Selectivity Index
[18] = Cytotoxicity against mouse 3T3 cells assessed as reduction in metabolic activity measured after 24 hrs; type: ADME, cell-based
[19] = Selectivity index, ratio of CC50 for mouse 3T3 cells to MIC for candida albicans; type: toxicity; conditions: read-out: Selectivity Index
[20] = Cytotoxicity against human HepG2 cells assessed as reduction in metabolic activity measured after 24 hrs; type: ADME, cell-based
[21] = test system: Candida albicans; assay: Antifungal activity against Candida albicans clinical isolate; type: functional
[22] = test system: Rhizopus; assay: Antifungal activity against Rhizopus assessed as inhibition of fungal growth by broth dilution assay; type: functional, organism-based
[23] = test system: Candida; assay: Antifungal activity against Candida assessed as inhibition of fungal growth by broth dilution assay; type: functional, organism-based
[24] = test system: Aspergillus; assay: Antifungal activity against Aspergillus assessed as inhibition of fungal growth by broth dilution assay; type: functional, organism-based

SMILES	MIC [1] [µg/mL]	MIC [2] [µg/mL]	MIC [3] [µg/mL]	MIC [4] [µg/mL]	MIC [5] [µg/mL]	MIC [6] [µg/mL]	also measured
Cc1cc(C2=CCN(C(=N)N)CC2)ccc1-c1nnc(-c2ccc(C3=CCN(C(=N)N)CC3)cc2)o1	25 (≈ 51.8 µM)	12.5 (≈ 25.9 µM)	0.78 (≈ 1.62 µM)	0.78 (≈ 1.62 µM)	0.31 (≈ 0.642 µM)	0.2 (≈ 0.414 µM)	
CC(C)(C)c1cc(C(C)(C)C)c2[nH]c(C(C)(C)C)c(C[C@H](NC(=O)[C@@H](N)CCCNC(=N)N)C(=O)N[C@@H](CCCNC(=N)N)C(=O)NCCc3ccccc3)c2c1 [LTX-109]							MIC [7]: 8 µg/mL (≈ 10.2 µM); MIC [8]: 4 µg/mL (≈ 5.08 µM)
Cn1c(-c2ccc(C3CCN(C(=N)N)CC3)cc2)nnc1-c1ccc(C2CCN(C(=N)N)CC2)cc1	> 100	> 100	0.78 (≈ 1.61 µM)	1.56 (≈ 3.21 µM)	1.56 (≈ 3.21 µM)	0.78 (≈ 1.61 µM)	
Cn1c(-c2ccc(N3CCN(C(=N)N)CC3)cc2)nnc1-c1ccc(N2CCN(C(=N)N)CC2)cc1	> 100	> 100	1.56 (≈ 3.2 µM)	0.39 (≈ 0.8 µM)	0.78 (≈ 1.6 µM)	0.39 (≈ 0.8 µM)	
Cn1c(-c2ccc(CNC(=N)N)cc2)cnc1-c1ccc(CNC(=N)N)cc1	> 100	> 100	> 100	> 100	> 100	> 100	
CC[C@@H]([C@H](C)O)n1ncn(-c2ccc(N3CCN(c4ccc(OC[C@@H]5CO[C@@](Cn6cncn6)(c6ccc(F)cc6F)C5)cc4)CC3)cc2)c1=O [POSACONAZOLE]	0.78 (≈ 1.11 µM)	1.56 (≈ 2.23 µM)	1.56 (≈ 2.23 µM)	0.39 (≈ 0.557 µM)	0.78 (≈ 1.11 µM)	0.78 (≈ 1.11 µM)	
NC(N)=N/N=C/c1ccc(OCc2ccc(Cl)c(Cl)c2)cc1							IC50 [22]: > 12 µM; IC50 [23]: > 12 µM; IC50 [24]: > 12 µM
Cc1cc(-c2nnc(-c3ccc(C4=CCN(C(=N)N)CC4)cc3)o2)ccc1C1=CCN(C(=N)N)CC1	25 (≈ 51.8 µM)	25 (≈ 51.8 µM)	1.56 (≈ 3.23 µM)	> 25	6.25 (≈ 13 µM)	0.39 (≈ 0.808 µM)	
Cc1ccc(Oc2ccccc2-c2csc(N=C3NCCCN3)n2)c(C)c1 [ABAFUNGIN]							MIC [23]: 0.5 µg/mL (≈ 1.32 µM); MIC ([24]; time 48 hrs): 0.5 µg/mL (≈ 1.32 µM)
Cc1cc(-c2nnc(-c3ccc(C4=CCN(C(=N)N)CC4)c(C)c3)n2C)ccc1C1=CCN(C(=N)N)CC1	50 (≈ 98.1 µM)	6.25 (≈ 12.3 µM)	0.78 (≈ 1.53 µM)	0.78 (≈ 1.53 µM)	1.56 (≈ 3.06 µM)	0.78 (≈ 1.53 µM)	
N=C(N)N1CC=C(c2ccc(-c3nnc(-c4ccc(C5=CCN(C(=N)N)CC5)cc4)o3)cc2)CC1	100 (≈ 213 µM)	100 (≈ 213 µM)	6.25 (≈ 13.3 µM)	3.13 (≈ 6.68 µM)	3.13 (≈ 6.68 µM)	0.39 (≈ 0.832 µM)	
Cn1c(-c2ccc(C3=CCN(C(=N)N)C3)cc2)nnc1-c1ccc(C2=CCN(C(=N)N)C2)cc1	6.25 (≈ 13.8 µM)	0.78 (≈ 1.72 µM)	0.2 (≈ 0.441 µM)	0.2 (≈ 0.441 µM)	0.39 (≈ 0.86 µM)	0.05 (≈ 0.11 µM)	

Further molecules by falling MIC [1], results first:

MIC [1] [µg/mL]	MIC [2] [µg/mL]	MIC [3] [µg/mL]	MIC [4] [µg/mL]	MIC [5] [µg/mL]	MIC [6] [µg/mL]	SMILES	also measured
6.25 (≈ 13 µM)	0.78 (≈ 1.62 µM)	3.13 (≈ 6.51 µM)	0.2 (≈ 0.416 µM)	0.39 (≈ 0.811 µM)	< 0.1	Cn1c(-c2ccc(C3=CCN(C(=N)N)CC3)cc2)cnc1-c1ccc(C2=CCN(C(=N)N)CC2)cc1	
6.25 (≈ 12.3 µM)	1.56 (≈ 3.06 µM)	0.2 (≈ 0.392 µM)	0.78 (≈ 1.53 µM)	0.39 (≈ 0.765 µM)	0.78 (≈ 1.53 µM)	Cc1cc(C2=CCN(C(=N)N)CC2)ccc1-c1nnc(-c2ccc(C3=CCN(C(=N)N)CC3)cc2C)n1C	
6.25 (≈ 12.6 µM)	3.13 (≈ 6.32 µM)	0.2 (≈ 0.404 µM)	0.2 (≈ 0.404 µM)	0.39 (≈ 0.787 µM)	0.2 (≈ 0.404 µM)	Cc1cc(C2=CCN(C(=N)N)CC2)ccc1-c1nnc(-c2ccc(C3=CCN(C(=N)N)CC3)cc2)n1C	
3.13 (≈ 3.39 µM)	1.56 (≈ 1.69 µM)	3.13 (≈ 3.39 µM)	3.13 (≈ 3.39 µM)	3.13 (≈ 3.39 µM)	3.13 (≈ 3.39 µM)	C[C@@H]1[C@H](O)[C@@H](C)/C=C/C=C/C=C/C=C/C=C/C=C/C=C/[C@H](O[C@@H]2O[C@H](C)[C@@H](O)[C@H](N)[C@@H]2O)C[C@@H]2O[C@](O)(C[C@@H](O)C[C@@H](O)[C@H](O)CC[C@@H](O)C[C@@H](O)CC(=O)O[C@H]1C)C[C@H](O)[C@H]2C(=O)O [AMPHOTERICIN B]	
3.13 (≈ 5.61 µM)	1.56 (≈ 2.8 µM)	0.05 (≈ 0.0897 µM)	0.39 (≈ 0.699 µM)	1.56 (≈ 2.8 µM)	0.1 (≈ 0.179 µM)	N=C(N)N1CC=C(c2ccc(-c3nnc(-c4ccc(C5=CCN(C(=N)N)CC5)cc4)n3Cc3ccccc3)cc2)CC1	
3.13 (≈ 5.69 µM)	0.78 (≈ 1.42 µM)	0.2 (≈ 0.364 µM)	0.2 (≈ 0.364 µM)	0.39 (≈ 0.71 µM)	0.2 (≈ 0.364 µM)	Cn1c(-c2ccc(C3=CCN(C(=N)N)CC3)cc2)nnc1-c1ccc(C2=CCN(C(=N)N)CC2)c(C(F)(F)F)c1	
1.56 (≈ 2.84 µM)	0.39 (≈ 0.709 µM)	0.39 (≈ 0.709 µM)	0.39 (≈ 0.709 µM)	0.78 (≈ 1.42 µM)	0.2 (≈ 0.364 µM)	N=C(N)N1CC=C(c2ccc(-c3nnc(-c4ccc(C5=CCN(C(=N)N)CC5)cc4)n3C3CCCCC3)cc2)CC1	
1.56 (≈ 2.97 µM)	0.39 (≈ 0.742 µM)	0.05 (≈ 0.0951 µM)	0.1 (≈ 0.19 µM)	0.2 (≈ 0.38 µM)	0.05 (≈ 0.0951 µM)	COCCn1c(-c2ccc(C3=CCN(C(=N)N)CC3)cc2)nnc1-c1ccc(C2=CCN(C(=N)N)CC2)cc1	
0.78 (≈ 1.57 µM)	0.2 (≈ 0.404 µM)	< 0.012	< 0.012	< 0.012	< 0.012	CCn1c(-c2ccc(C3=CCN(C(=N)N)CC3)cc2)nnc1-c1ccc(C2=CCN(C(=N)N)CC2)cc1	
0.78 (≈ 1.53 µM)	0.2 (≈ 0.392 µM)	< 0.1	< 0.1	< 0.1	< 0.1	CC(C)n1c(-c2ccc(C3=CCN(C(=N)N)CC3)cc2)nnc1-c1ccc(C2=CCN(C(=N)N)CC2)cc1	solubility [9]: 27 µg/mL (≈ 53 µM); solubility [10]: ≤ 5000 µg/mL; inhibition at 10 µM [11]: 21.6%; inhibition at 10 µM [12]: 0%; inhibition at 10 µM [13]: 10.3%; fraction unbound at 4 h, 1 µM [14]: 0.027; inhibition at 10 µM [15]: 0%; half-life [16]: > 1 h; selectivity ratio [17]: > 1000; CC50 at 24 h [18]: 297 µM; selectivity ratio [19]: > 1000; CC50 at 24 h [20]: 751 µM; MIC50 [21]: 0.1 µg/mL (≈ 0.196 µM)
0.39 (≈ 0.81 µM)	0.2 (≈ 0.415 µM)	0.024 (≈ 0.0498 µM)	0.1 (≈ 0.208 µM)	0.1 (≈ 0.208 µM)	0.024 (≈ 0.0498 µM)	Cn1c(-c2ccc(C3=CCN(C(=N)N)CC3)cc2)nnc1-c1ccc(C2=CCN(C(=N)N)CC2)cc1	
